Source: PubChem BioAssay (NCI)
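Tested at 5 concentrations; 48 h exposure; 96-well plates; endpoints linearly interpolated, else capped at highest concentration. At the TGI there is no net growth.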

How the values were obtained:
Test in all cases: DTP human tumour cell line panel, 48 h
786-0 renal = tested on: 786-0 renal
A498 renal = tested on: A498 renal
A549 NSCLC = tested on: A549 NSCLC
ACHN renal = tested on: ACHN renal
BT-549 breast = tested on: BT-549 breast
CAKI-1 renal = tested on: CAKI-1 renal
CCRF-CEM leukemia = tested on: CCRF-CEM leukemia
COLO 205 colon = tested on: COLO 205 colon
DMS 114 small cell lung = tested on: DMS 114 small cell lung
DMS 273 small cell lung = tested on: DMS 273 small cell lung
DU-145 prostate = tested on: DU-145 prostate
EKVX NSCLC = tested on: EKVX NSCLC
HCC-2998 colon = tested on: HCC-2998 colon
HCT-116 colon = tested on: HCT-116 colon
HCT-15 colon = tested on: HCT-15 colon
HL-60(TB) leukemia = tested on: HL-60(TB) leukemia
HOP-18 NSCLC = tested on: HOP-18 NSCLC
HOP-62 NSCLC = tested on: HOP-62 NSCLC
HOP-92 NSCLC = tested on: HOP-92 NSCLC
HS 578T breast = tested on: HS 578T breast
HT29 colon = tested on: HT29 colon
IGROV1 ovarian = tested on: IGROV1 ovarian
K-562 leukemia = tested on: K-562 leukemia
KM12 colon = tested on: KM12 colon
KM20L2 colon = tested on: KM20L2 colon
LOX IMVI melanoma = tested on: LOX IMVI melanoma
LXFL 529 NSCLC = tested on: LXFL 529 NSCLC
M14 melanoma = tested on: M14 melanoma
M19-MEL melanoma = tested on: M19-MEL melanoma
MALME-3M melanoma = tested on: MALME-3M melanoma
MDA-MB-231 breast = tested on: MDA-MB-231 breast
MDA-MB-435 = tested on: MDA-MB-435
MDA-N = tested on: MDA-N
MOLT-4 leukemia = tested on: MOLT-4 leukemia
NCI-H226 lung = tested on: NCI-H226 lung
NCI-H23 lung = tested on: NCI-H23 lung
NCI-H460 lung = tested on: NCI-H460 lung
NCI-H522 lung = tested on: NCI-H522 lung
NCI/ADR-RES ovarian = tested on: NCI/ADR-RES ovarian
OVCAR-3 ovarian = tested on: OVCAR-3 ovarian
OVCAR-4 ovarian = tested on: OVCAR-4 ovarian
OVCAR-5 ovarian = tested on: OVCAR-5 ovarian
OVCAR-8 ovarian = tested on: OVCAR-8 ovarian
PC-3 prostate = tested on: PC-3 prostate
RPMI-8226 leukemia = tested on: RPMI-8226 leukemia
RXF 393 renal = tested on: RXF 393 renal
SF-268 CNS = tested on: SF-268 CNS
SF-295 CNS = tested on: SF-295 CNS
SF-539 CNS = tested on: SF-539 CNS
SK-MEL-2 melanoma = tested on: SK-MEL-2 melanoma
SK-MEL-28 melanoma = tested on: SK-MEL-28 melanoma
SK-MEL-5 melanoma = tested on: SK-MEL-5 melanoma
SK-OV-3 ovarian = tested on: SK-OV-3 ovarian
SN12C renal = tested on: SN12C renal
SNB-19 CNS = tested on: SNB-19 CNS
SNB-75 CNS = tested on: SNB-75 CNS
SNB-78 CNS = tested on: SNB-78 CNS
SR leukemia = tested on: SR leukemia
SW-620 colon = tested on: SW-620 colon
T-47D breast = tested on: T-47D breast
TK-10 renal = tested on: TK-10 renal
U251 CNS = tested on: U251 CNS
UACC-257 melanoma = tested on: UACC-257 melanoma
UACC-62 melanoma = tested on: UACC-62 melanoma
UO-31 renal = tested on: UO-31 renal
XF 498 CNS = tested on: XF 498 CNS
DLD-1 colon = tested on: DLD-1 colon
RXF-631 renal = tested on: RXF-631 renal

Measured: TGI

CC(=O)OC(CCC1(C)OC1COc1ccc(CCNC(=O)C=C(C)C)cc1)C(C)(C)OC(C)=O (stereo unspecified)
39.1 µM: MOLT-4 leukemia
> 92.1 µM: COLO 205 colon
40.4 µM: MDA-MB-435
86.3 µM: XF 498 CNS
27.3 µM: UACC-257 melanoma
> 92.7 µM: CCRF-CEM leukemia
> 74.4 µM: SR leukemia
60.7 µM: RPMI-8226 leukemia
> 56.7 µM: HL-60(TB) leukemia
47.9 µM: NCI/ADR-RES ovarian
> 57.6 µM: M14 melanoma
> 100 µM: 786-0 renal | A498 renal | A549 NSCLC | ACHN renal | CAKI-1 renal | DMS 273 small cell lung | DU-145 prostate | EKVX NSCLC | HCC-2998 colon | HCT-116 colon | HCT-15 colon | HOP-18 NSCLC | HOP-62 NSCLC | HOP-92 NSCLC | HS 578T breast | HT29 colon | IGROV1 ovarian | K-562 leukemia | KM20L2 colon | LOX IMVI melanoma | LXFL 529 NSCLC | M19-MEL melanoma | MALME-3M melanoma | MDA-MB-231 breast | NCI-H226 lung | NCI-H23 lung | NCI-H460 lung | NCI-H522 lung | OVCAR-3 ovarian | OVCAR-4 ovarian | OVCAR-5 ovarian | OVCAR-8 ovarian | PC-3 prostate | SF-268 CNS | SF-295 CNS | SF-539 CNS | SK-MEL-2 melanoma | SK-MEL-28 melanoma | SK-OV-3 ovarian | SN12C renal | SNB-19 CNS | SNB-78 CNS | SW-620 colon | T-47D breast | TK-10 renal | U251 CNS | UACC-62 melanoma | UO-31 renal
98.1 µM: SNB-75 CNS
15.6 µM: SK-MEL-5 melanoma
25.4 µM: BT-549 breast
48.7 µM: DMS 114 small cell lung
78.4 µM: KM12 colon
51.9 µM: MDA-N
> 31.6 µM: RXF 393 renal

C1COCCSC2=C(SCCO1)SC(=C1SC3=C(SCCOCCOCCS3)S1)S2
> 100 µM: 786-0 renal | A498 renal | A549 NSCLC | ACHN renal | CAKI-1 renal | CCRF-CEM leukemia | COLO 205 colon | DLD-1 colon | DMS 114 small cell lung | DMS 273 small cell lung | EKVX NSCLC | HCC-2998 colon | HCT-116 colon | HCT-15 colon | HL-60(TB) leukemia | HOP-18 NSCLC | HOP-62 NSCLC | HOP-92 NSCLC | HT29 colon | IGROV1 ovarian | K-562 leukemia | KM12 colon | KM20L2 colon | LOX IMVI melanoma | LXFL 529 NSCLC | M14 melanoma | MALME-3M melanoma | MOLT-4 leukemia | NCI-H226 lung | NCI-H23 lung | NCI-H460 lung | NCI-H522 lung | OVCAR-3 ovarian | OVCAR-4 ovarian | OVCAR-5 ovarian | OVCAR-8 ovarian | RXF 393 renal | SF-268 CNS | SF-295 CNS | SF-539 CNS | SK-MEL-2 melanoma | SK-MEL-28 melanoma | SK-MEL-5 melanoma | SK-OV-3 ovarian | SN12C renal | SNB-19 CNS | SNB-78 CNS | SR leukemia | SW-620 colon | TK-10 renal | U251 CNS | UACC-257 melanoma | UACC-62 melanoma | UO-31 renal
73.3 µM: XF 498 CNS
51.4 µM: SNB-75 CNS

C=CCC1(C)CCCCC1(O)CS(=O)c1ccccc1 (stereo unspecified)
> 100 µM: 786-0 renal | A498 renal | A549 NSCLC | ACHN renal | CAKI-1 renal | CCRF-CEM leukemia | COLO 205 colon | DLD-1 colon | DMS 114 small cell lung | DMS 273 small cell lung | EKVX NSCLC | HCC-2998 colon | HCT-116 colon | HCT-15 colon | HL-60(TB) leukemia | HOP-18 NSCLC | HOP-62 NSCLC | HOP-92 NSCLC | HT29 colon | IGROV1 ovarian | KM12 colon | KM20L2 colon | LOX IMVI melanoma | M14 melanoma | M19-MEL melanoma | MALME-3M melanoma | MOLT-4 leukemia | NCI-H226 lung | NCI-H460 lung | NCI-H522 lung | OVCAR-3 ovarian | OVCAR-4 ovarian | OVCAR-5 ovarian | OVCAR-8 ovarian | RPMI-8226 leukemia | RXF 393 renal | RXF-631 renal | SF-268 CNS | SF-295 CNS | SF-539 CNS | SK-MEL-28 melanoma | SK-MEL-5 melanoma | SK-OV-3 ovarian | SN12C renal | SNB-19 CNS | SNB-75 CNS | SNB-78 CNS | SR leukemia | SW-620 colon | TK-10 renal | U251 CNS | UACC-257 melanoma | UACC-62 melanoma | UO-31 renal
